# Tests used:
# Assay type in all cases: cell-based
# [1] = test system: Staphylococcus aureus ATCC 6538; assay: Test for adequate preservation (European Pharmacopea), 1,2-diols and 1,2-diol mixtures in O/W emulsion; conditions: 3% diol(s) in O/W emulsion
# Procedure: (§1) A test for adequate preservation was carried out in accordance with the European Pharmacopea. The test thus consists of the contamination of the formulation, if possible in its final ratio, with a prescribed inoculum of suitable microorganisms, storage of the inoculated formulation at a specific temperature, taking of samples from the vessel at specific intervals and determination of the number of microorganisms in the samples taken in this way. The preserving properties are adequate if, under the conditions of the test, there is a distinct reduction or optionally no increase in the germ count in the inoculated formulations after the prescribed times at the prescribed temperatures. Experimental details of the test procedure are described in the European Pharmacopea (ISBN 3-7692-2768-9; 2001 supplement to the 3rd Edition, page 421-422, chapter 5.1.3). The initial germ count (CFU/g; “0” value) was in the range of 240,000 to 300,000 in the various test series. For the tests for adequate preservation, (a) potentially synergistically active mixtures taken into account and (b), for comparison purposes, the corresponding unmixed 1,2-diols were incorporated in O/W emulsions. […] The variation in the total concentration of 1,2-diols or 1,2-diol mixtures in the O/W emulsions was compensated for by increasing or reducing the water content, so that otherwise identical formulations always comprised 100 parts by weight in total.
# [2] = test system: Pseudomonas aeruginosa ATCC 9027; assay: as above; conditions: 3% diol(s) in O/W emulsion
# Procedure: as §1
# [3] = test system: Escherichia coli ATCC 8739; assay: as above; conditions: 3% diol(s) in O/W emulsion
# Procedure: as §1
# [4] = test system: Candida albicans ATCC 10231; assay: as above; conditions: 3% diol(s) in O/W emulsion
# Procedure: as §1
# [5] = test system: Malassezia furfur DSM 6171; assay: MIC, agar dilution method; conditions: DSM6171, Mueller-Hinton agar + 3% Tween 80, 72 h at 30° C.
# Procedure: (§2) Petri dishes 9.0 cm in diameter were charged with 13.5 ml freshly prepared Mueller-Hinton agar (Merck, Ref. 1.05437 or Wilkins-Chalgren agar boullion, Oxoid, Ref. CM 643, supplemented with log agar-agar/liter) kept liquid at 50° C., to which the various concentrations of the diluted samples were added in 10% (V/V)=1.5 ml. Mueller-Hinton agar that contained 3% Tween80 (Merck, Ref. 8.22 187) was used for the test germ Malassezia furfur. In each case 5 ml of the samples were diluted in distilled water and made up to 10 ml. The further test concentrations of the particular dilution series, which were prepared in the form of geometric series, were prepared by progressive 1:2 dilution of this batch with distilled water. […] Two agar plates were poured per test concentration and nutrient medium. After solidification and drying (approx. 1 h at 37° C.), the test plates were inoculated in point form with, in each case, 1 μl of the test germ suspensions listed below. To check purity and identity the bacteria that grow aerobically (Brevibacterium epidermidis, Corynebacterium xerosis, Staphylococcus epidermidis) were [lacuna] on Columbia blood agar (BioMérieux, Ref. 43049). The mould Aspergillus niger, the yeast Candida albicans and the two skin fungi Trichophyton mentagrophytes and Epidermophyton floccosum were cultured on Sabouraud agar (BioMérieux, Ref. 43555). Malassezia furfur was cultured on Sabourad HLT agar with disinhibitors (addition of 3% Tween80: 1%; lecithin: 0.3%; histidine: 0.1%; Merck, Ref. 1.18368). Propionibacterium acnes was cultured on Schaedler agar (BioMérieux, Ref. 43273). Further details on the test germs can be taken from Table 5. For preparation of the other test germ suspensions, the test strains were cultured on the abovementioned solid nutrient medium, harvested using sterile swabs and taken up or diluted in such an amount of Mueller-Hinton broth that the turbidity of the suspensions corresponded to McFarland standard 0.5. All test germ suspensions with the exception of Propionibacterium acnes were diluted again 1:10 with sterile broth and the germ count thereof was determined by the surface method using a Spiralometer (results: see Table 5). The MIC (minimum inhibitory concentration) was regarded as the lowest concentration of active compound at which macroscopically there is no growth. Minimal, barely visible growth or few small individual colonies were evaluated as inhibition.
# [6] = test system: Epidermophyton floccosum CBS 55384; assay: MIC, agar dilution method; conditions: CBS55384, Mueller-Hinton agar, 18 h at 36° C.
# Procedure: as §2
# [7] = test system: Trichophyton mentagrophytes CBS 26379; assay: MIC, agar dilution method; conditions: CBS26379, Mueller-Hinton agar, 72 h at 30° C.
# Procedure: as §2
SMILES,germ count Staph. aureus ([1]; 0′-count (initial germ count)),germ count Staph. aureus ([1]; 24 h),germ count Staph. aureus ([1]; 48 h),germ count Staph. aureus ([1]; 7 d),germ count Staph. aureus ([1]; 14 d),germ count Staph. aureus ([1]; 28 d),germ count Ps. aeruginosa ([2]; 0′-count (initial germ count)),germ count Ps. aeruginosa ([2]; 24 h),germ count Ps. aeruginosa ([2]; 48 h),germ count Ps. aeruginosa ([2]; 4 d),germ count Ps. aeruginosa ([2]; 7 d),germ count Ps. aeruginosa ([2]; 14 d),germ count Ps. aeruginosa ([2]; 28 d),germ count E. coli ([3]; 0′-count (initial germ count)),germ count E. coli ([3]; 24 h),germ count E. coli ([3]; 48 h),germ count E. coli ([3]; 4 d),germ count E. coli ([3]; 7 d),germ count E. coli ([3]; 14 d),germ count E. coli ([3]; 28 d),also measured
"CCCCC(O)CO (stereo not drawn) [HE3, 1,2-hexanediol]","240,000 CFU/ml",<100 CFU/ml,<100 CFU/ml,0 CFU/ml,0 CFU/ml,0 CFU/ml,"290,000 CFU/ml",<100 CFU/ml,<100 CFU/ml,0 CFU/ml,0 CFU/ml,0 CFU/ml,0 CFU/ml,"300,000 CFU/ml",<100 CFU/ml,<100 CFU/ml,0 CFU/ml,0 CFU/ml,0 CFU/ml,0 CFU/ml,"germ count C. albicans ([4]; 0′-count (initial germ count)): 250,000 CFU/ml; germ count C. albicans ([4]; 24 h): 120,000 CFU/ml; germ count C. albicans ([4]; 48 h): 5,600 CFU/ml; germ count C. albicans ([4]; 4 d): 0 CFU/ml; germ count C. albicans ([4]; 7 d): 0 CFU/ml; germ count C. albicans ([4]; 14 d): 0 CFU/ml; germ count C. albicans ([4]; 28 d): 0 CFU/ml; MIC [5]: 12500 µg/mL; MIC [6]: 6250 µg/mL; MIC [7]: 6300 µg/mL"
"CCCCCCC(O)CO (stereo not drawn) [OC3, 1,2-octanediol]","240,000 CFU/ml",0 CFU/ml,0 CFU/ml,0 CFU/ml,0 CFU/ml,0 CFU/ml,"290,000 CFU/ml",0 CFU/ml,0 CFU/ml,0 CFU/ml,0 CFU/ml,0 CFU/ml,0 CFU/ml,"300,000 CFU/ml",0 CFU/ml,0 CFU/ml,0 CFU/ml,0 CFU/ml,0 CFU/ml,0 CFU/ml,"germ count C. albicans ([4]; 0′-count (initial germ count)): 250,000 CFU/ml; germ count C. albicans ([4]; 24 h): 3,200 CFU/ml; germ count C. albicans ([4]; 48 h): <100 CFU/ml; germ count C. albicans ([4]; 4 d): 0 CFU/ml; germ count C. albicans ([4]; 7 d): 0 CFU/ml; germ count C. albicans ([4]; 14 d): 0 CFU/ml; germ count C. albicans ([4]; 28 d): 0 CFU/ml; MIC [5]: 50000 µg/mL; MIC [6]: 3120 µg/mL; MIC [7]: 1560 µg/mL"
